Measurements reported in patent US10512667B2, “Compositions and methods for treating conditions related to adrenocortical activity and/or excessive steroid production” (The Regents of the University of Michigan, priority 2017, dated 2019).
Entries after “also recorded” stand apart in the source; their conditions may differ.

Legend:
H295R cells [1] = assay: Cholesterol efflux into serum-free medium with apoA1; type: cell-based; conditions: serum-free medium containing apoA-I, 4 h
Protocol: Cholesterol efflux was measured by replacing the culture medium with serum-free medium supplemented with 5 μg/ml apoA1 (Sigma) and the indicated compounds. After the indicated time, the serum-free medium was collected, and the cholesterol concentration was measured using the fluorometric enzyme-linked assay (Cayman Chemical).
After 48 h, the medium was removed and replaced with 50 μl serum-free medium supplemented with 5 μg/mL apoA1. After the indicated time, the supernatant containing the effluxed cholesterol, was transferred to a new 96-well plate. A cholesterol detection reagent (Cayman Chemical) consisting of cholesterol assay buffer, cholesterol assay detector (10-acetyl-3,7-dihydroxyphenoxazine [ADHP]), horseradish peroxidase, cholesterol oxidase, and cholesterol esterase was added, and the reactions were incubated for 30 min at 37 C. The fluorescence intensities were measured using ex. […] 590 nm. The cholesterol concentrations were calculated by interpolation between the values produced by cholesterol standards that were analyzed in parallel.

H295R cells [2] = assay: Visualization of NBD-cholesterol esterification; type: cell-based
Protocol: (§1) The cells were seeded in 96-well ibiTreat μ-Plates and allowed to adhere for 48 h prior to the start of each experiment. Cholesterol was detected in fixed cells by incubating with 100 μg/ml filipin III at 37 C for 2 h. The bound filipin III was imaged by fluorescence microscopy using 377/11 nm excitation and 447/60 nm emission wavelengths. Images were captured using either a 4× or a 60× objective. Cholesterol esterification was visualized by culturing the cells with 1 μM NBD-cholesterol for 2 h following incubation with the indicated compounds. NBD-cholesterol esters were imaged by fluorescence microscopy using 485/20 nm excitation wavelengths. Images were captured using either a 20× or a 60× objective.
(§2) The cells were seeded in 96-well ibiTreat μ-Plates (Ibidi) in 100 μl at a density of 50,000 cells per well. […] 5 μl of NBD-cholesterol was added to each well to produce a final concentration of 1 μM. When NBD-cholesterol is esterified and localized to cytoplasmic lipid droplets, it produces bright fluorescent foci in the cell. The inhibition of ACAT activity prevents fluorescent focus formation by NBD-cholesterol (see, e.g., Lada, et al., 2004 J Lipid Res, 45, 378-86). After 1.5 h, 5 μl of Hoechst 33342 was added to each well to produce a final concentration of 3 μg/ml. After 30 min, the medium was replaced with fresh medium. NBD-cholesterol esterification was visualized by fluorescence microscopy using either 485/20 nm (NBD) or 387/11 nm (Hoechst) excitation wavelengths and images were captured using either a 60× oil objective or a 20× objective.

BD140C cells [3] = assay: Visualization of NBD-cholesterol esterification; type: cell-based; conditions: compound 2 h then 2 h with NBD-cholesterol
Protocol: as §1, §2

H295R cells [4] = assay: Caspase 3/7 activity (Apo-ONE); type: cell-based; conditions: for caspase 3/7 activity, compound alone: serum-containing medium
Protocol: (§3) The samples were incubated for 18 h at room temperature in the dark. The fluorescence was measured using a SpectraMax M5 microplate reader with a 0.5 s acquisition time.

BD140C cells [5] = assay: Caspase 3/7 activity (Apo-ONE); type: cell-based
Protocol: as §3

adrenal cortex = conditions: in vivo; cited from earlier work
ACAT = conditions: cited from earlier work
CHOP = assay: Transcript measurement by qPCR in H295R cells; type: cell-based; conditions: 4 h
Protocol: (§4) mRNA was isolated (Qiagen), and was reverse transcribed using the Transcriptor First Strand cDNA synthesis kit (Roche). The relative amounts of cDNAs corresponding to the indicated transcripts were quantified using qPCR assays with specific primers (Table 2).
(§5) H295R cells were seeded in 6-well tissue culture plates (Corning #3506) at a density of 5 X105 per well. After 48 h, the compound(s) indicated were added, and the cells were cultured for the indicated time. The cells were harvested in 1.35 ml culture medium with trypsin. The cells were collected by centrifugation and lysed in 350 μl of RLT buffer (Qiagen) with β-mercaptoethanol. mRNA extraction and DNase treatment were performed according to the manufacturer's protocol (Qiagen). All RNA samples had 260/280 ratios greater than 1.5. The same amount of RNA ranging from 0.1 to 0.5 μg was used for reverse transcription using the Roche Transcriptor First Strand cDNA synthesis kit (Roche #04897030001) using the manufacturer's protocol. SYBR Green I-based real-time qPCR assays were performed using a Roche LightCycler480 instrument. The levels of transcripts in different samples were normalized by the levels of RPL9 transcripts.

ABCG1 = assay: Transcript measurement by qPCR in H295R cells; type: cell-based; conditions: 4 h, hydrochloride
Protocol: as §4, §5

ABCA1 = assay: Transcript measurement by qPCR in H295R cells; type: cell-based; conditions: 4 h, hydrochloride
Protocol: as §4, §5

BD140C cells [6] = assay: Cellular ATP level (CellTiter-Glo); type: cell-based
Protocol: (§7) The ATP levels of cells were measured by lysis in CellTiter-Glo reagent (Promega), and measurement of the luminescence.
(§8) After 48 h, 20-80 μl of medium was removed from each well and replaced with 20 μl of each compound diluted to 6× of the final concentration in the culture medium to produce a final volume of 120 μl. The cells were incubated at 37 C in 5% CO2 atmosphere for a time ranging from 15 min to 24 h. The medium was removed and immediately replaced with 50 μl of CellTiter-Glo luminescence cell viability assay reagent (Promega). The cells were lysed by agitation at room temperature for 20 min in the dark. The luminescence was measured using a SpectraMax M5 microplate reader (Molecular Devices) with a 0.5 s acquisition time. The luminescence (RLU) values for control cells ranged from 5000 to 20000 RLU in all experiments, and were scaled by a factor of 0.001 to plot all graphs.

H295R cells [7] = assay: Cortisol secretion (indirect ELISA); type: cell-based
Protocol: Cortisol secretion was measured by replacing the culture medium with fresh medium containing the indicated compounds. The medium was collected at the indicated times. The cortisol concentration in the medium was measured using indirect ELISA (Arbor Assays).
After 48 h, the medium was removed and replaced with 50 μl of fresh medium. After the indicated incubation time, aliquots of the supernatant ranging from 0.5 to 10 μl were diluted in 50 μl of medium were used to measure the amount of cortisol secreted. Cortisol detection and quantification were performed by indirect ELISA according to the manufacturer's protocol (Arbor Assays #K003).

H295R cells [8] = assay: Visualization of cholesterol levels by filipin III binding; type: cell-based; conditions: for cholesterol level / accumulation (filipin III binding), compound alone: serum-containing medium
Protocol: as §1, with “The bound filipin III was imaged by fluorescence microscopy using 377/11 nm excitation and 447/60 nm emission wavelengths.” left out, “NBD-cholesterol esters were imaged by fluorescence microscopy using 485/20 nm excitation wavelengths.” left out
(§6) The medium was removed and immediately replaced with 100 μl of 4% paraformaldehyde and the cells were fixed at room temperature for 20 min. The cells were washed twice with 200 μl PBS. […] The fixed cells were incubated with filipin III at 37 C in the dark for 2 h.

BD140C cells [9] = assay: as above; type: cell-based; conditions: 4 h
Protocol: as §1, with “The bound filipin III was imaged by fluorescence microscopy using 377/11 nm excitation and 447/60 nm emission wavelengths.” left out, “NBD-cholesterol esters were imaged by fluorescence microscopy using 485/20 nm excitation wavelengths.” left out
as §6

H295R cells [10] = assay: Cellular ATP level (CellTiter-Glo); conditions: for ATP level, compound alone: H295R cells, serum-containing medium;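 for all read-outs here: ATP quantified by luminescence after lysing the cells in CellTiter-Glo reagent, with compound exposure at 37 °C under 5% CO2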
Protocol: as §7, §8

H295R cells [11] = assay: Cell morphology by phase contrast microscopy; type: cell-based; conditions: 30 h
Protocol: FIG. 4E: […] The cells were cultured with DMSO vehicle (upper images) or with 40 μM ATR-101 (lower images) alone (left images), or in combination with 1.5 mM MβCD (middle images), or in combination with 40 μM cholesterol (right images). Cell morphology was visualized by phase contrast microscopy using a 10× objective. The images are representative of 5 fields under each set of culture conditions. The scale bars denote 100 μm.

H295R cells [12] = assay: Cholesterol crystallization and extracellular cholesterol associated with cells; type: cell-based
Protocol: To quantify cholesterol crystallization, experiments were conducted that measured the total extracellular cholesterol that was associated with the cells. After culturing cells with the indicated compounds, the culture medium was removed. Medium lacking cholesterol was added to the cells, and the extracellular cholesterol that was released into the wash medium was collected after 30 seconds. To establish if the cholesterol that was released from the cells was exported by ABCA1, the wash step was performed in parallel using media with and without 50 μM glibenclamide, which inhibits ABCA1 activity. The total amount of cell-associated cholesterol that was released into the wash medium was measured using a fluorometric enzyme-linked assay (Cayman Chemical). Cholesterol esters were hydrolyzed using cholesterol esterase. Cholesterol was oxidized by cholesterol oxidase, producing hydrogen peroxide. The hydrogen peroxide was reacted with 10-acetyl-3,7-dihydroxyphenoxazine (ADHP) in the presence of horseradish peroxidase to produce resorufin. Resorufin fluorescence was measured using 555 nm exitation and 590 nm emission wavelengths in a SpectraMax M5 microplate reader (Molecular Devices).
The medium was removed and replaced with 50 μl serum-free medium supplemented with 5 μg/mL apo-AI (without or with 50 μM glyburide to detect ABCA1 transporter-dependent efflux) for either 30 sec or 1 h at 37 C in 5% CO2 atmosphere. After the indicated time, the supernatant, was transferred to a new 96-well plate and a fluorometric-base cholesterol detection assay cocktail was added.

[13] = H295R cells, serum-free, 50 μM each glibenclamide, benzamil, zosuquidar, 10 μM PD129337, 4 mM MβCD
[14] = H295R cells cultured with the compound together with ATR-101, 4 h
[15] = H295R cells cultured with the compound together with ATR-101, 24 h

CC(C)c1cccc(C(C)C)c1NC(=O)NCC1(c2ccccc2)CCCC1.Cl [PD129337, N-(2,6-bis(1-methylethyl)phenyl)-N′-((1-(phenyl)cyclopentyl)methyl)urea hydrochloride]
cholesterol efflux, compound alone (H295R cells [1]): no detectable effect on cholesterol efflux | NBD-cholesterol esterification and accumulation in lipid droplets (H295R cells [2]; compound 2 h then 2 h with NBD-cholesterol, hydrochloride): inhibited cholesterol esterification more efficiently than ATR-101; also recorded: inhibited NBD-cholesterol accumulation more effectively than ATR-101; also recorded: eliminated both the intense foci and the diffuse fluorescence | NBD-cholesterol esterification and accumulation in lipid droplets (BD140C cells [3]): inhibited NBD-cholesterol esterification | caspase 3/7 activity, compound alone (H295R cells [4]; H295R cells, 4 h): did not cause ATP depletion or caspase activation | caspase 3/7 activity, compound alone (H295R cells [4]; H295R cells, 24 h, hydrochloride): did not reduce the ATP level or increase the caspase 3/7 activity; also recorded: no detectable effect | caspase 3/7 activity with combinations of ABC transporter inhibitors (H295R cells [4]; [13]): did not enhance ATP depletion or caspase 3/7 activation | caspase 3/7 activity, compound alone (BD140C cells [5]; 4 h): did not cause ATP depletion or caspase activation | caspase 3/7 activity, compound alone (BD140C cells [5]; 24 h, hydrochloride): did not reduce the ATP level or increase the caspase 3/7 activity; also recorded: no detectable effect | adrenalytic activity (adrenal cortex): only ATR-101 has adrenalytic activity | ACAT activity (ACAT): inhibit ACAT activity | CHOP transcript level (CHOP): activated | ABCG1 transcript level (ABCG1): inhibited; also recorded: equivalent effects | ABCA1 transcript level (ABCA1): inhibited; also recorded: equivalent effects | ATP level, compound alone (BD140C cells [6]; 4 h): did not cause ATP depletion | ATP level, compound alone (BD140C cells [6]; 24 h, hydrochloride): did not reduce the ATP level; also recorded: no detectable effect | cortisol secretion, compound alone (H295R cells [7]; cortisol in medium, 4 h or time course): did not reduce, but rather increased, cortisol secretion | cholesterol level / accumulation (filipin III binding), compound alone (H295R cells [8]; H295R cells, up to 4 h): did not cause cholesterol accumulation | cholesterol level with combinations of ABC transporter inhibitors (H295R cells [8]; [13]): further increased the cholesterol level | cholesterol level / accumulation (filipin III binding), compound alone (BD140C cells [9]): did not cause cholesterol accumulation | ATP level, compound alone (H295R cells [10]; 4 h): did not cause ATP depletion | ATP level, compound alone (H295R cells [10]; 24 h, hydrochloride): did not reduce the ATP level; also recorded: no detectable effect

CC(C)CCC[C@@H](C)[C@H]1CC[C@H]2[C@@H]3CC=C4C[C@@H](O)CC[C@]4(C)[C@H]3CC[C@]12C [cholesterol]
effect on the changes in cell morphology caused by ATR-101 (H295R cells [11]; 40 μM ATR-101 with 1.5 mM MβCD or 40 μM cholesterol): remained flat and adherent for at least 30 h; also recorded: prevented | cell morphology, compound alone (H295R cells [11]; phase contrast): no detectable effect | effect of exogenous cholesterol on NBD-cholesterol esterification and on its inhibition by ATR-101 (H295R cells [2]; 40 μM exogenous cholesterol, 100 μM ATR-101): no significant difference | effect on caspase 3/7 activation by ATR-101 (H295R cells [4]; [14]): did not affect caspase 3/7 activation | effect on caspase 3/7 activation by ATR-101 (H295R cells [4]; [15]): reduced caspase activation | caspase 3/7 activity, compound alone (H295R cells [4]; H295R cells, 4 h): no detectable effect | caspase 3/7 activity, compound alone (H295R cells [4]; H295R cells, 24 h): no detectable effect | effect on the inhibition of cortisol secretion by ATR-101 (H295R cells [7]; 40 μM of the compound together with ATR-101, 4 h): neither compound prevented the inhibition of cortisol secretion | effect on cholesterol accumulation caused by ATR-101 (H295R cells [8]; H295R cells cultured with the compound together with ATR-101, 4 h or 24 h): lower cholesterol levels than cells that were cultured with ATR-101 alone; also recorded: prevented intracellular cholesterol accumulation; also recorded: did not have a higher level of filipin III binding to the plasma membrane | cholesterol level / accumulation (filipin III binding), compound alone (H295R cells [8]; H295R cells, 24 h): no detectable effect | cholesterol level / accumulation (filipin III binding), compound alone (H295R cells [8]; H295R cells, up to 4 h): no detectable effect | effect on ATP depletion by ATR-101 (H295R cells [10]; [14]): partially restored the ATP level; also recorded: restored normal or nearly normal ATP levels; also recorded: reduced ATP depletion | effect on ATP depletion by ATR-101 (H295R cells [10]; [15]): partially restored the ATP level; also recorded: inhibits ATP depletion by ATR-101 | ATP level, compound alone (H295R cells [10]; 4 h): no detectable effect | ATP level, compound alone (H295R cells [10]; 24 h): no detectable effect | total extracellular cholesterol associated with cells (H295R cells [12]; 4 h, 100 μM ATR-101 or 40 μM cholesterol): increased the total extracellular cholesterol | effect on cholesterol crystallization in cells cultured with ATR-101 (H295R cells [12]; compound in combination with ATR-101): produced more extracellular crystals; also recorded: increased the amount of extracellular cholesterol crystals
